Results taken from patent US11612574B2 (priority 2020, dated 2023).
pKi: −log10 of the molar value.

Columns and labels:
[1] = test system: CD4+ and CD8+ lymphocytes; details: cited from earlier work
sigma-1 receptor [2] = biological target: T1, sigma-1 receptor (Homo sapiens, UniProt Q99720); details: cited from earlier work
Candida albican = details: in vivo; cited from earlier work
SARS-CoV-2 [3] = type: cell-based
sigma = details: non-selective sigma binding assay; cited from earlier work
[4] = test system: Vero E6 cells infected with SARS-CoV-2; assay: Neutral red cytoprotection/cytotoxicity in Vero E6 cells infected with SARS-CoV-2; details: Vero E6, dose response
Calu-3 cells = assay: Cell death and viability of Calu-3 cells (cytotoxicity, no virus); type: cell-based, human
Protocol: 4. Cytotoxicity assays were conducted in parallel, for these no virus was added.
a. Cell viability: was assessed by staining cells with the ViaStain™ Calcein AM/Hoechst/PI Viability Kit (Nexcelom, Cat #CS5-V006-1) per manufacturer's instructions and imaging with the Celígo Imaging Cytometer (Nexcelom). Briefly, live and metabolically active cells were detected using the Calcein AM stain (Ex/Em: 488/520). Dead cells were detected using the propidium iodide stain (PI, Ex/Em: 493/636). Total number of cells were detected using the Hoechst-nuclear stain (Ex/Em: 352/461). Thus, cell viability was assessed by comparing live cells counts (normalized to total cell count) across treatment groups, and cell cytotoxicity was assessed through comparison of dead cell counts (normalized to total cells) across treatment groups.

[5] = test system: interleukin-1beta and TNF-alpha; details: in vivo; cited from earlier work
sigma-2 receptor = sigma-2 receptor (Homo sapiens, UniProt Q5BJF2); details: cited from earlier work
sigma-1 receptor [6] = biological target: T1, sigma-1 receptor; details: cited from earlier work; remark: listed apart in the source
SARS-CoV-2 [7] = details: cited from earlier work

T1 sequence (Q99720 whole entry, species assumed): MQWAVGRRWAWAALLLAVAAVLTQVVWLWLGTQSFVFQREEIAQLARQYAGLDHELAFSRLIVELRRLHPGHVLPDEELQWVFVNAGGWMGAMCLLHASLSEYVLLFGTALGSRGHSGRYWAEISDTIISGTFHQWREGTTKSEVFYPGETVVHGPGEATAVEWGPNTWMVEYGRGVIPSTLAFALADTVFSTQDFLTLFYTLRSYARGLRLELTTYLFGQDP
Chain of sigma-2 receptor (Q5BJF2 whole entry): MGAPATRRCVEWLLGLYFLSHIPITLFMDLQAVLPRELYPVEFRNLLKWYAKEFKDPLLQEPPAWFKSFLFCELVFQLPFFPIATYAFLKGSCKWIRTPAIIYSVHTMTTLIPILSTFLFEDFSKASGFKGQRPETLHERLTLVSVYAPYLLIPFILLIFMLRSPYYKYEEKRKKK

Question: For `CCN[C@@H](C)Cc1cccc(C(F)(F)F)c1` (racemic) [dexfenfluramine], which “number of CD4+ and CD8+ lymphocytes that produced IFN-gamma” value ([1]; HIV+ or HIV- patients) is on record?
Answer: increased

Question: What about the “number of CD8+ lymphocytes that produce TNF-alpha” value ([1]; HIV+ patients) of the same compound?
Answer: increased

Question: What about the “amount of IL-2 produced by CD4+ and CD8+ lymphocytes” value ([1]; lymphocytes from HIV+ patients) of the same compound?
Answer: increased

Question: And the sigma-1 receptor modulation (sigma-1 receptor [2])?
Answer: positive modulators

Question: And the “CD3+ and CD8+ lymphocytes” value (Candida albican)?
Answer: marked increase

Question: What about the “numbers of NK1.1+ cells” value (Candida albican) of the same compound?
Answer: modest increase

Question: Which results are given for `CCNC(C)Cc1cccc(C(F)(F)F)c1` (racemic) [fenfluramine, (RS)—N-ethyl-1-[3-(trifluoromethyl)phenyl]propan-2-amine]?
Answer: average viral replication (mNeonGreen fluorescence normalized to total cell count) (SARS-CoV-2 [3]): about 2·10^3; SARS-CoV-2 viral replication compared with control cells receiving only vehicle (SARS-CoV-2 [3]; Calu-3 cells, 50 mM fenfluramine as printed, 72 hr): statistically significantly (p<0.0001) lower; pKi (sigma): 6.58; neutral red signal, virus infected cells ([4]; SARS-CoV-2 infected MOI 0.1, FIG. 4B): ~0.2; neutral red signal, uninfected cells ([4]; uninfected cells, FIG. 4B): ~1.0; sigma-1 receptor modulation (sigma-1 receptor [2]): positive allosteric modulator; cytotoxicity (cell death and viability versus controls) (Calu-3 cells; 20 μg/ml): not cytotoxic; cytotoxicity (cell death and viability versus controls) (Calu-3 cells; 40 μg/ml): cytotoxic; production of interleukin-1beta and TNF-alpha [5]: suppressed

Question: For `CCN(CC)CCCC(C)Nc1ccnc2cc(Cl)ccc12` (centres unmarked) [Chloroquine], which “binding/activity at sigma-2 receptor” value (sigma-2 receptor) is on record?
Answer: low uM activity

Question: What about the “binding/activity at sigma-1 receptor” value (sigma-1 receptor [6]) of the same compound?
Answer: mid-nM activity

Question: For `O=C(CCCN1CCC(O)(c2ccc(Cl)cc2)CC1)c1ccc(F)cc1` [Haloperidol], which “inhibition of SARS-CoV-2 in vitro” value (SARS-CoV-2 [7]) is on record?
Answer: inhibit

Question: And the “binding/activity at sigma-2 receptor” value (sigma-2 receptor)?
Answer: low nM range

Question: With `CCN(CCO)CCCC(C)Nc1ccnc2cc(Cl)ccc12` (centres unmarked) [hydroxy-chloroquine] as the compound, how does the “inhibition of SARS-CoV-2 in vitro” value (SARS-CoV-2 [7]) read?
Answer: inhibit
